Data on three molecules can be found in patent US7262220B2, “Urea- and urethane-substituted acylureas, process for their preparation and their use” (Sanofi-Aventis Deutschland GmbH, priority 2002, dated 2007).

The assay deals with T1, human glycogen phosphorylase a (Homo sapiens, UniProt P06737).
T1 sequence (P06737 1-847): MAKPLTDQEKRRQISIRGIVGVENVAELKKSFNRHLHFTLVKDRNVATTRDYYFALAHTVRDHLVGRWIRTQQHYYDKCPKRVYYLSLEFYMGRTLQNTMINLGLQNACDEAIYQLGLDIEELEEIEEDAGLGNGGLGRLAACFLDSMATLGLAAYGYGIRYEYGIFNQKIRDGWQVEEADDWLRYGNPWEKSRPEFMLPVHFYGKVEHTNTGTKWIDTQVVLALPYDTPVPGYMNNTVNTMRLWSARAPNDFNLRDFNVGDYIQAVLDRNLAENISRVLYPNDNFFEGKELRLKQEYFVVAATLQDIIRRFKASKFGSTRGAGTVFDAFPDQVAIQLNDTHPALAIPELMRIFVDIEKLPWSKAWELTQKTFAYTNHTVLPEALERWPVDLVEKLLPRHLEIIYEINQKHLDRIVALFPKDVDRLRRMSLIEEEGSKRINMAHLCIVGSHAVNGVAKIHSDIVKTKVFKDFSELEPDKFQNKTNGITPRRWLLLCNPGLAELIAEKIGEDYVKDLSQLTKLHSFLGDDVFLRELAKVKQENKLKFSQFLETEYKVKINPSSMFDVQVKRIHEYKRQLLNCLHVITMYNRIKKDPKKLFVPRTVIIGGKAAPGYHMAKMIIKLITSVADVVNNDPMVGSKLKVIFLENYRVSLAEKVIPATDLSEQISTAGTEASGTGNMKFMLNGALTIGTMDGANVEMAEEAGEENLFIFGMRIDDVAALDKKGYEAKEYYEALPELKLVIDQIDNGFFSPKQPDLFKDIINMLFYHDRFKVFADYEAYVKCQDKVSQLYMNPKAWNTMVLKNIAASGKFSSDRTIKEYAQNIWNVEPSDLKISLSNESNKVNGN
Nature of the assay: Glycogen phosphorylase a activity assay. The format is biochemical. Particulars: read-out: % inhibition at 10 μM. On the procedure:
Glycogen Phosphorylase a Activity Assay
The effect of compounds on the activity of the active form of glycogen phosphorylase (GPa) was measured in the reverse direction by following the synthesis of glycogen from glucose 1-phosphate by determining the liberation of inorganic phosphate. All the reactions were carried out as duplicate determinations in microtiter plates with 96 wells (Half Area Plates, Costar No 3696), measuring the change in absorption owing to the formation of the reaction product at the wavelength specified hereinafter in a Multiskan Ascent Elisa Reader (Lab Systems, Finland). In order to measure the GPa enzymic activity in the reverse direction, the general method of Engers et al. (Engers H D, Shechosky S, Madsen N B, Can J Biochem 1970 July; 48(7):746-754) was used to measure the conversion of glucose 1-phosphate into glycogen and inorganic phosphate, with the following modifications: human glycogen phosphorylase a (for example with 0.76 mg of protein/ml (Aventis Pharma Deutschland GmbH), dissolved in buffer solution E (25 mM β-glycerophosphate, pH 7.0, 1 mM EDTA and 1 mM dithiothreitol) was diluted with buffer T (50 mM hepes, pH 7.0, 100 mM KCl, 2.5 mM EDTA, 2.5 mM MgCl26H2O) and addition of 5 mg/ml glycogen to a concentration of 10 μg of protein/ml. […] The baseline glycogen phosphorylase a activity in the absence of test substance was determined by adding 10 μl of buffer solution T (0.1% DMSO). The mixture was incubated at room temperature for 40 minutes, and the liberated […] was measured by the general method of Drueckes et al. (Drueckes P, Schinzel R, Palm D, Anal Biochem 1995 Sep. 1; 230(1):173-177) with the following modifications: 50 μl of a stop solution of 7.3 mM ammonium molybdate, 10.9 mM zinc acetate, 3.6% ascorbic acid, 0.9% SDS are added to 50 μl of the enzyme mixture. After incubation at 45° C. for 60 minutes, the absorption at 820 nm was measured. […]

Setting [1] is: 10 μM test substance, GPa activity measured in the reverse direction (liberation of inorganic phosphate), duplicate determinations.

Where two headings read alike, the source gives them in different places.

As to `COC(=O)Nc1ccc(C(=O)O)cc1NC(=O)NC(=O)c1ccc(F)cc1Cl` [Example 3, 3-[3-(2-Chloro-4-fluorobenzoyl)ureido]-4-methoxycarbonylaminobenzoic acid], the inhibition (in general, the drop in the measured response relative to a control, in per cent) at 10 µM under setting [1] was 53%. Take `COC(=O)/C=C/c1ccc(NC(=O)Oc2ccc(Cl)cc2)cc1NC(=O)NC(=O)c1cc(F)c(F)cc1Cl` [Example 110, Methyl (E)-3-[2-[3-(2-chloro-4,5-difluorobenzoyl)ureido]-4-(4-chloro-phenoxycarbonylamino)phenyl]acrylate]: the inhibition at 10 µM stood at 73%. Take `COc1cc2c(=O)[nH]c(=O)[nH]c2cc1NC(=O)NC(=O)c1cc(F)c(F)cc1Cl` [Example 132, 1-(2-Chloro-4,5-difluorobenzoyl)-3-(6-methoxy-2,4-dioxo-1,2,3,4-tetrahydro-quinazolin-7-yl)urea]: the inhibition at 10 µM under setting [1] was determined as 97%.
